Columns and labels:
[1] = biological target: T1, Proto-oncogene tyrosine-protein kinase Src [251-533,T338C] (Gallus gallus, UniProt P00523, T338C); test: In vitro Kinase Assay; settings: pH 8
T1 construct: 251-533
Procedure: (§1) In vitro kinase assays for c-Src variants were performed in 50 mM Tris (pH 8.0), 10 mM MgCl2 and 1 mg/mL BSA. When obtaining kinetic parameters (kcat, Km) kinase and peptide substrate (IYGEFKKK) (SEQ ID NO:51) concentrations were 2 nM and 500 μM, respectively, while ATP concentrations ranged from 2000-0.655 μM. Addition of nonradioactive ATP supplemented with 32P ATP (3,000 Ci/mmol, NEN) was used to initiate kinase reactions. Time points were selected such that product formation never exceeded 10%. Reactions were quenched by spotting 3 μL quantities onto phosphocellulose sheets (P81, Whatman). Afterwards, the sheets were washed 3×5 minutes in 0.5% phosphoric acid and dried. Radioactivity was measured by phosphorimaging and recorded on a Typhoon fluorescence imager (Molecular Dynamics).

[2] = biological target: T2, Proto-oncogene tyrosine-protein kinase Src [251-533] (Gallus gallus, UniProt P00523); test: In vitro Kinase Assay; settings: pH 8
T2 construct: 251-533
Procedure: as §1

Compound | IC50 [1] [nM] | IC50 [2] [nM]
CC(=O)c1cccc(Cc2nn(C(C)C)c3ncnc(N)c23)c1 [US9353116, 14] | 4520 | > 5000
C=CS(=O)(=O)Nc1ccc(Nc2ncnc3cc(OC)c(OC)cc23)cc1 [US9353116, 20] | 560 | 2170
